Series [1] is described as follows: CNP local tolerance study in LYD pigs (s.c. injection, histopathology). Format: in vivo, domestic LYD pig. The source says:
The purpose of this study was to evaluate the local tissue reaction response to subcutaneous injection of CNP compounds in pigs.
Procedure: In domestic pigs, the injection site was subjected to histopathologic examination after subcutaneous dosing. Injections were placed mid-back between the shoulder and hip on both sides of the dorsal midline, and one or two days before injection sites of 2×2 cm were shaved and marked by permanent ink under light anaesthesia. Each injection consisted of 100 or 200 μl formulation with a concentration of approx. 4400 μM. CNP compound formulations were prepared according to the principles in General Methods of Preparation—Method G, and were either A) 8 mM sodium phosphate, 250 mM glycerol, pH 6.5, B) 5 mM sodium acetate, 250 mM glycerol, pH 4.0 or C) 5 mM sodium acetate, 240 mM propylene glycol, pH 4.0 and physiological saline was included as negative control.
On Day 1 the pigs were lightly anaesthetised. An insulin pen (NovoPen 4) and insulin needle (NovoTwist 32G/5 mm) were used for accurate deposition of the CNP formulations in the subcutaneous fat tissue with the needle perpendicular to the skin. On Day 5 (4 days post injection) or 6 (5 days post injection), the pigs were euthanised, and the injection sites were removed and fixed in 4% phosphate buffered neutral formaldehyde in sealed plastic containers. The tissue blocks were prefixed for 2-4 hours in 10% buffered formalin, cut into 2 mm thick slabs with a multi knife, examined for macroscopic changes and finally fixed overnight in cassettes. Two slabs of tissue were selected for light microscopic evaluation where the tissue reaction was maximal or alternatively in the central part of the injection site. Three to four 2-4 μm sections were cut from three levels at 100 μm distance, stained with haematoxylin and eosin (H&E) and evaluated in a light microscope. Histopathological changes were graded on a 5-level scale ((Minimal (Min), Mild (Mil), Moderate (Mod), Marked (Mar) and Severe (Sev)). The studies are summarised in Table 18.
Results: The results are summarised in Table 19. * Necrosis was used as a marker for local subcutaneous reactions; **NAD: No Abnormalities Detected

Series [2] can be described thus: PK after i.v. and s.c. administration to domestic LYD pig. The following applies: female, in vivo, Domestic LYD pig; for clearance: read-out: CL (ml/hr/kg), Intravenous PK (converted). Here is the method: The purpose of this study was to investigate pharmacokinetic and pharmacodynamic properties after intravenous (i.v.) and subcutaneous (s.c.) administration to Gottingen Minipig and domestic LYD pig, and to estimate bioavailability after s.c. dosing. Quantitative plasma analysis of CNP and cGMP levels were performed as described in
Animals and dosing: The pharmacokinetic and pharmacodynamic studies in Gottingen Minipig or domestic LYD pig were conducted at CRO Minerva Imaging or Novo Nordisk A/S, respectively. CNP compounds were dosed to normal female 1) Gottingen minipigs 6-12 months of age with an average weight of 22 kg or 2) domestic LYD pigs 4-5 months of age with and average weight of 80 kg. At least one week prior to dosing, permanent central venous catheters were implanted for blood sampling and intravenous (i.v.) dosing. For subcutaneous (s.c.) dosing, the pigs were ultrasound scanned and the optimal injection area laterally on the neck marked by a permanent tattoo. An insulin pen (NovoPen Echo or NovoPen 4) and insulin needle (NovoFine 32G/4 mm or NovoTwist 32G/5 mm) were used for accurate deposition of the CNP formulations in the subcutaneous fat tissue with the needle perpendicular to the skin.
CNP compounds were formulated according to the principles in General Methods of Preparation—Method G and were either A) 8 mM sodium phosphate, 250 mM glycerol, pH 6.5, B) 5 mM sodium acetate, 250 mM glycerol, pH 4.0, C) 5 mM sodium acetate, 240 mM propylene glycol, pH=4.0, D) 8 mM sodium phosphate, 250 mM glycerol, pH 7.5 or E) 20 mM sodium phosphate, 223 mM propylene glycol, pH 6.0.
Intravenously, the CNP compounds were dosed at 30-60 nmol/kg to Minipig and 15-43 nmol/kg to domestic pig using formulations A-E. Subcutaneously, the CNP compounds were dosed at 55-62 nmol/kg to Minipig and 20-30 nmol/kg to domestic pig using formulations A-D.
Sampling: Blood samples of approximately 1 mL were collected pre dose and up to 14 days post dose into EDTA-coated tubes (8 mM) for cGMP and CNP compound analysis by LC-MS. In few instances, cGMP was only analysed up to 48 hours post dose after intravenous dosing in domestic LYD pig. The blood samples were kept on wet ice for maximum 30 minutes until centrifugation for 10 minutes at 4° C. and minimum 1500G, and the plasma samples were stored at −20° C. until analysis.
Plasma concentration-time profiles were analyzed by non-compartmental PK analysis using Phoenix WinNonlin 8.1, Pharsight Inc., Mountain View, CA, USA. Calculation of the area under the plasma concentration-time curve (AUC) was based on the “linear up log down” method, and uniform weighting was used for estimation of the terminal rate constant (λz). S.c. bioavailability (F) was calculated as the dose-normalized AUC (AUC/dose) after s.c. administration divided by the AUC/dose after i.v. administration. […]

The target in series [3] is T1, human natriuretic peptide receptor 2 (hNPR2) (Homo sapiens, UniProt P20594).
T1 construct: expressed in transfected cells; host or cells: HEK293 (ATCC CRL-1573), clone 35, co-transfected with pGloSensor-42F
T1 sequence (P20594 23-1047): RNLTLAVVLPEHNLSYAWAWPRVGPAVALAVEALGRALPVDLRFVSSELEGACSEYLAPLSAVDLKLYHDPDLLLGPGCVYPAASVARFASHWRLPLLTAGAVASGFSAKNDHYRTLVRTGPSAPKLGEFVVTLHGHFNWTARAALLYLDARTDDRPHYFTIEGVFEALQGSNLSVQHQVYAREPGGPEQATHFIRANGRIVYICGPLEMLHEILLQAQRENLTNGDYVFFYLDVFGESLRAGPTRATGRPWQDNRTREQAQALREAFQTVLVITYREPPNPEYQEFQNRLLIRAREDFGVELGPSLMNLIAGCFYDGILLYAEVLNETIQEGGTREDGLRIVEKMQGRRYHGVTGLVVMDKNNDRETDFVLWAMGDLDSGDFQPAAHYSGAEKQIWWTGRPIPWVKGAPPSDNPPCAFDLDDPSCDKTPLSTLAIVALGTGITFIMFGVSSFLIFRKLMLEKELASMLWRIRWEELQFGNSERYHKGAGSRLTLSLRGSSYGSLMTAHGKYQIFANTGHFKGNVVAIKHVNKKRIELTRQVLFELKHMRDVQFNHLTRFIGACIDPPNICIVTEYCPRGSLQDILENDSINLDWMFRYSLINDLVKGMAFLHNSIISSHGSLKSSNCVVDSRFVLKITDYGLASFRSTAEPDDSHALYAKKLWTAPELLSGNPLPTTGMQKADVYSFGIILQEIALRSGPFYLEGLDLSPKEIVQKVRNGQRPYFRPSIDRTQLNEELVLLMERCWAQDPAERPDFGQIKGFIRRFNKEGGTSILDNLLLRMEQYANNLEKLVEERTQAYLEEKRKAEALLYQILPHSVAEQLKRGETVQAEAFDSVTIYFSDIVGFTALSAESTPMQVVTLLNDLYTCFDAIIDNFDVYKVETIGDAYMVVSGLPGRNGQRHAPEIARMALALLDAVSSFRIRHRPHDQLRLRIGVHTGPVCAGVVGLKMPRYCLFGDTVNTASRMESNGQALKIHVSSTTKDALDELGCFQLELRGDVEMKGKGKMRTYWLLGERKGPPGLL
Put plainly: In vitro hNPR2 activity assay (cGMP GloSensor reporter, HEK293). Type of series: cell-based. Put shortly: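 Potency is the EC50 from a four-parameter logistic fit, also expressed relative to the in-plate CNP22 control (×100), with at least two replicates. Compounds (ten concentrations, […], HSA-free diluent with 1% OVA, 0.01% Tween20) were incubated 30 min at 37 °C on HEK293 cells co-expressing hNPR2 and a GloSensor cGMP luciferase. Luminescence detected with Bright-Glo.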

[4] abbreviates: iv, i.v., read-out: T½, iv (converted).

Like-named read-outs stand apart in the source and are kept apart here. Starred links: 1 amine or outer side, 2 acyl side, 3 side chain; linkers in the order of their positions; H or OH if unused. Positions of bridges follow the written chain, without caps; N, C: chain ends. Residues, ends and D or L forms follow the SMILES beside them. *: point of attachment. C18 diacid = O=C(O)CCCCCCCCCCCCCCCCC(=O)*; γGlu = O=C(O)[C@H](CCC(=O)[*:2])N[*:1]; AEEA = NCCOCCOCC(=O)O

Consider `CC[C@H](C)[C@@H]1NC(=O)[C@H](CCCNC(=N)N)NC(=O)[C@H](CC(=O)O)NC(=O)[C@H](CC(C)C)NC(=O)[C@H](CCCCN)NC(=O)[C@H](CC(C)C)NC(=O)CNC(=O)[C@H](Cc2ccccc2)NC(=O)[C@@H](NC(=O)CNC(=O)[C@H](CCCCN)NC(=O)[C@H](CO)NC(=O)[C@H](CC(C)C)NC(=O)CNC(=O)[C@H](CCCCN)NC(=O)[C@H](CCCCN)NC(=O)[C@H](CC(N)=O)NC(=O)[C@H](C)NC(=O)CNC(=O)[C@H](CCCCN)NC(=O)[C@H](Cc2ccc(O)cc2)NC(=O)[C@H](CCCCN)NC(=O)[C@H](CCCNC(=N)N)NC(=O)[C@H](C)NC(=O)[C@H](CC(N)=O)NC(=O)[C@@H]2CCCN2C(=O)[C@H](Cc2c[nH]cn2)NC(=O)[C@H](CCC(=O)O)NC(=O)[C@H](CCC(N)=O)NC(=O)CNC(=O)[C@@H]2CCCN2)CSSC[C@@H](C(=O)O)NC(=O)CNC(=O)[C@H](CC(C)C)NC(=O)CNC(=O)[C@H](CO)NC(=O)[C@H](CCSC)NC(=O)[C@H](CO)NC(=O)CNC1=O` [Compound 0106], for which the “Number of injections by severity of necrosis: NAD” value in series [1] (LYD pig, s.c., approx. 4400 μM, 4 or 5 days after injection) stood at 4.

Turning to `CC[C@H](C)[C@@H]1NC(=O)[C@H](CCCNC(=N)N)NC(=O)[C@H](CC(=O)O)NC(=O)[C@H](CC(C)C)NC(=O)[C@@H]2CCCN2C(=O)[C@H](CC(C)C)NC(=O)CNC(=O)[C@H](Cc2ccccc2)NC(=O)[C@@H](NC(=O)CNC(=O)[C@H](CCCCN)NC(=O)[C@H](CO)NC(=O)[C@H](CC(C)C)NC(=O)CNC(=O)[C@H](CCCCN)NC(=O)[C@H](CCCCN)NC(=O)[C@H](CCC(N)=O)NC(=O)[C@H](C)NC(=O)CNC(=O)[C@H](CCC(=O)O)NC(=O)[C@H](Cc2ccc(O)cc2)NC(=O)COCCOCCNC(=O)COCCOCCNC(=O)CC[C@H](NC(=O)CCCCCCCCCCCCCCCCC(=O)O)C(=O)O)CSSC[C@@H](C(=O)O)NC(=O)CNC(=O)[C@H](CC(C)C)NC(=O)CNC(=O)[C@H](CO)NC(=O)[C@H](CC(C)C)NC(=O)[C@H](CO)NC(=O)CNC1=O` [Compound 1225] ({C18 diacid-γGlu-AEEA-AEEA}-YEGAQKKGLSKGCFGLPLDRIGSLSGLGC-OH; disulfide 13-29), the clearance in series [2] (iv, i.v.) was 3.23 mL/h/kg. Moreover, in series [2] (setting [4]), the half-life is 15 h.

In the case of `CC[C@H](C)[C@@H]1NC(=O)[C@H](CCCNC(=N)N)NC(=O)[C@H](CC(=O)O)NC(=O)[C@H](CC(C)C)NC(=O)[C@@H]2CCCN2C(=O)[C@H](CC(C)C)NC(=O)CNC(=O)[C@H](Cc2ccccc2)NC(=O)[C@@H](NC(=O)CNC(=O)[C@H](CO)NC(=O)[C@H](CO)NC(=O)[C@H](CC(C)C)NC(=O)CNC(=O)[C@H](CCCCN)NC(=O)[C@H](CCCCN)NC(=O)[C@H](CCC(N)=O)NC(=O)[C@H](C)NC(=O)CNC(=O)[C@H](CCC(=O)O)NC(=O)[C@H](Cc2ccc(O)cc2)NC(=O)COCCOCCNC(=O)COCCOCCNC(=O)CC[C@H](NC(=O)CCCCCCCCCCCCCCCCC(=O)O)C(=O)O)CSSC[C@@H](C(=O)O)NC(=O)CNC(=O)[C@H](CC(C)C)NC(=O)CNC(=O)[C@H](CO)NC(=O)[C@H](CC(C)C)NC(=O)[C@H](CO)NC(=O)CNC1=O` [Compound 1227] ({C18 diacid-γGlu-AEEA-AEEA}-YEGAQKKGLSSGCFGLPLDRIGSLSGLGC-OH; disulfide 13-29), in series [2] (iv, i.v.), the clearance was 5.54 mL/h/kg. Further, the half-life in series [2] (setting [4]) was 11 h; in series [2] (sc, s.c., read-out: T½, sc (converted)) it was 9 h. Besides, the bioavailability in series [2] (sc, s.c. bioavailability, read-out: F (%), Subcutaneous PK) stood at 55%.

As for `CC[C@H](C)[C@@H]1NC(=O)[C@H](CCCNC(=N)N)NC(=O)[C@H](CC(=O)O)NC(=O)[C@H](CC(C)C)NC(=O)[C@H](CCCCN)NC(=O)[C@H](CC(C)C)NC(=O)CNC(=O)[C@H](Cc2ccccc2)NC(=O)[C@@H](NC(=O)CNC(=O)[C@H](CCCCN)NC(=O)[C@H](CO)NC(=O)[C@H](CC(C)C)NC(=O)CNC(=O)[C@H](CCCCN)NC(=O)[C@H](CCCCN)NC(=O)[C@H](CC(N)=O)NC(=O)[C@H](C)NC(=O)CNC(=O)[C@H](CCCCN)NC(=O)[C@H](Cc2ccc(O)cc2)NC(=O)[C@H](CCCCN)NC(=O)[C@H](CCCNC(=N)N)NC(=O)[C@H](C)NC(=O)[C@H](CC(N)=O)NC(=O)[C@@H]2CCCN2C(=O)[C@H](Cc2c[nH]cn2)NC(=O)[C@H](CCC(=O)O)NC(=O)[C@H](CCC(N)=O)NC(=O)CNC(=O)[C@@H]2CCCN2)CSSC[C@@H](C(=O)O)NC(=O)CNC(=O)[C@H](CC(C)C)NC(=O)CNC(=O)[C@H](CO)NC(=O)[C@H](CCSC)NC(=O)[C@H](CO)NC(=O)CNC1=O` [compound 0106], the EC50 in series [3] (0% HSA, HEK293-hNPR2/GloSensor cells) worked out at 0.18 nM. Moreover, the “hNPR2 0% HSA. [EC50% rel CNP]” value in series [3] (potency relative to CNP22 (0065)) is 201.1%. Also, the injection site reactions entry in series [1] (subcutaneous injections in the pig) is on record as “no observable injection site reactions”.

A word on the EC50: it is the concentration at which the effect is half-maximal. Read a low EC50 as higher potency in that assay.

Values taken from patent publication US20240209028A1, “CNP COMPOUNDS” (priority 2022, published 2024).
